Read-outs that look alike come from different tables or passages of the source. Some results are limits rather than exact numbers.

Results on three molecules are retold here after patent publication US11213590B2, “SSTR-targeted conjugates and particles and formulations thereof” (priority 2016, dated 2022).

One data set relates to NCI-H69 xenograft. Description: NCI-H69 lung xenograft efficacy, formulations and schedules. The data set is classed as in vivo, mice. As to conditions: cisplatin iv 5.0 mg/kg 1x/week combined with etoposide ip 8.0 mg/kg 3x/week over two weeks (SOC); Day 21. The method, then: A further NCI-H69 study design included Conjugate 57 dosed iv at 1.0 mg/kg formulated in propylene glycol (PG), 1.0 mg/kg formulated in Solutol HS15, 0.5 mg/kg formulated in Solutol HS15 dosed twice per week, and 0.33 mg/kg formulated in Solutol HS15 dosed three times per week. A comparator group was dosed with SOC cisplatin dosed iv at 5.0 mg/kg once per week/etoposide dosed ip at 8.0 mg/kg three times per week over two weeks. A negative control vehicle was dosed with the Solutol HS 15 vehicle. All groups contained 10 animals.

Another data set relates to HCC-33. Description: Inhibition of proliferation, CellTiter-Glo, HCC-33. The data set is classed as cell-based, human. As to conditions: Homo sapiens, HCC33, 6 h incubation, n = 3, read-out: Proliferation Inhibition IC50 of DM1. The method, then:
(§1) The purpose of this study was to determine the receptor-dependent inhibition of proliferation in vitro by the somatostatin targeting conjugate Conjugate 57 and determine the sensitivity to DM1 in the human SSTR2 expressing cancer cell lines: NCI-H69, NCI-H82, NCI-H727 and HCC-33. Cells were incubated with Conjugate 57 for 6 hours, in the presence or absence of an excess of octreotide, a somatostatin analogue. A three-fold serial dilution of Conjugate 57 was used for a total of ten concentration points. After treatment, cells were washed, incubated for an additional period of time, either 72 or 96 hours and proliferation was measured using the CellTiter-Glo® Luminescent Cell Viability Assay. The IC50 of Conjugate 57 was used to determine the inhibiting activity in proliferation assays. To determine DM1 sensitivity a similar method to the Conjugate 57 assay was employed with the additional incubation time points of 30 minutes, 1, 2, and 4 hours and the exclusion of the pre-treatment with octreotide. DM1 effect from the most to least sensitive cell line was determined to be: NCI-H69>HCC-33>NCI-H82>NCI-H727 (Table 5B). […] The addition of excess octreotide (100 μM) competes with Conjugate 57 for binding to the SSTR2 receptor. […] In the NCI-H69 experiments, pre-incubation with an excess of octreotide modestly diminished the activity of Conjugate 57 by 1.6 and 2.4 fold, depending on the assay conditions. In the HCC-33 cell line, activity of Conjugate 57 was 3.2 (±1.4) times higher when dosed alone, compared to when the cells were pre-incubated with octreotide. The small but measureable changes in Conjugate 57 activity in the presence of excess octreotide seen in the NCI-H69 and HCC-33 cell lines supports the receptor dependence of the Conjugate 57 antiproliferative effect seen in vitro. In summary, although all the cell lines tested in these experiments express the SSTR2 protein, they have different levels of sensitivity to the Conjugate 57 conjugate of which the DM1 sensitivity may be a contributing factor.
A general note: In ATP-based viability assays light output follows the ATP content of the culture.

A further data set concerns NCI-H727. Nature of the data set: cells. The data set is classed as cell-based, human. The following applies: Homo sapiens, read-out: Proliferation Inhibition IC50 of DM1. The protocol: as §1
A further data set has as its system NCI-H69. Nature of the data set: cells. The following applies: Homo sapiens, read-out: Proliferation Inhibition IC50 of DM1. The data set is classed as cell-based, human. The protocol: as §1
A further data set deals with NCI-H82. Description: cells. The data set is classed as cell-based, human. As to conditions: Homo sapiens, read-out: Proliferation Inhibition IC50 of DM1. The protocol:
as §1

For the next data set, the target named is CYP3A4 (Homo sapiens, UniProt P08684). As to conditions: KADCYLA package insert; to a lesser extent by CYP3A5; cited from earlier work.
For data set [1] the following is noted: cited from earlier work.

Chain of CYP3A4 (P08684 whole entry): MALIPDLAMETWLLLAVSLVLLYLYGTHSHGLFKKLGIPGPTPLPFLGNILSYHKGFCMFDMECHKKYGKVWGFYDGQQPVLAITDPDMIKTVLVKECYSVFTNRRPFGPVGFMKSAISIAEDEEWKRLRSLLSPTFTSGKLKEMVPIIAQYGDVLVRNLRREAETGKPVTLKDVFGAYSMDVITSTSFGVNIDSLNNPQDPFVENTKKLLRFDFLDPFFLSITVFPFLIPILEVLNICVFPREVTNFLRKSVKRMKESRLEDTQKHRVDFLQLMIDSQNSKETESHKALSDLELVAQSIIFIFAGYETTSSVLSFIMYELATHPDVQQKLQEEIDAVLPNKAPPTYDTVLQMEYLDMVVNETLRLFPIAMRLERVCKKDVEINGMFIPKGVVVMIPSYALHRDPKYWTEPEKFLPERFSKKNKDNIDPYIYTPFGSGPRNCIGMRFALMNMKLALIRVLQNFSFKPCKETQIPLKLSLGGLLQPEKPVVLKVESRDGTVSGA

On to `N.N.[Cl][Pt][Cl]` [Cisplatin, reference compound], for which, in the data set with NCI-H69 xenograft, the “MTV (Mean Tumor Volume)” value is listed as 229 mm3 and the “TGI (Tumor Growth Inhibition)” value was found to be 84%.
For `COc1cc2cc(c1Cl)N(C)C(=O)C[C@H](OC(=O)[C@H](C)N(C)C(=O)CCS)C1(C)O[C@H]1[C@H](C)[C@@H]1C[C@@](O)(NC(=O)O1)[C@H](OC)/C=C/C=C(\C)C2` (stereo partly drawn) [DM1, mertansine (DM1), reference compound], the IC50 in the data set on HCC-33 was 34 nM; in the data set on NCI-H727 (0.5 h, 30 min incubation) it was 1160 nM; in the data set on NCI-H727 (1 h incubation), 665 nM; in the data set on NCI-H727 (2 h incubation), 474 nM; in the data set with NCI-H727 (4 h incubation) it was 380 nM; with NCI-H727 (6 h incubation), 534 nM. Further, the IC50 in the data set with NCI-H69 (0.5 h, 30 min incubation) is 15 nM; in the data set with NCI-H69 (1 h incubation), 8 nM; in the data set on NCI-H69 (2 h incubation), 14 nM; in the data set with NCI-H69 (4 h incubation), 11 nM; in the data set with NCI-H69 (6 h incubation) it was 6 nM; with NCI-H82 (0.5 h, 30 min incubation), 171 nM. In addition, the IC50 with NCI-H82 (1 h incubation) is 232 nM; in the data set with NCI-H82 (2 h incubation), 183 nM; with NCI-H82 (4 h incubation), 188 nM; in the data set with NCI-H82 (6 h incubation), 56 nM. Besides, on CYP3A4, the “metabolizing enzymes in vitro” value is “metabolized in vitro mainly by CYP3A4”.
As for `C[C@@H](O)[C@@H]1NC(=O)[C@H](CCCCN)NC(=O)[C@@H](Cc2c[nH]c3ccccc23)NC(=O)[C@H](Cc2ccccc2)NC(=O)[C@@H](NC(=O)[C@@H](Cc2ccccc2)NC(=O)CN(CCN(CCN(CC(=O)O)CC(=O)O)CC(=O)O)CC(=O)O)CSSC[C@@H](C(=O)N[C@H](CO)[C@@H](C)O)NC1=O` [^111In pentetreotide, metal not drawn], in data set [1] (according to the manufacturer), the “hormonal effect relative to octreotide” value was 1/10. Further, the “adverse reactions, frequency” value in data set [1] (human, in vivo) is reported as less than 1%.
